Biological target: human TrkA receptor (Homo sapiens (Human), UniProt P04629)
Test: DiscoverX PathHunter TrkA functional assay (NGF-stimulated U2OS cells)
Format: cell-based
Settings: U2OS cells expressing human TrkA-PK, Shc1-EA and p75NTR; compound 1 h, then NGF at ~80% of maximal response for 3 h; luminescence
Description: TrkA functional activity was measured using a DiscoverX PathHunter assay. In this assay, U2OS cells express the human TrkA receptor as a fusion with the weakly complementing fragment of B-galactosidase, which DiscoverX calls “Prolink (PK)”; additionally, Shcl is fused with a larger fragment, which is called “Enzyme Acceptor (EA)”. Activation of the TrkA receptor, upon NGF addition, results in the kinase domain being phosphorylated, resulting in subsequent recruitment of Shcl-EA protein. That recruitment results in an active B-galactosidase enzyme that is detected by addition of a chemiluminescent substrate. The human p75^NTR protein was also expressed as a co-receptor for NGF.
All reagents were purchased from DiscoverX, except for the receptor agonists (NGF, BDNF, NT3) which were purchased from Peprotech. Cells were expanded and frozen into cryovials, and stored in the vapor phase of liquid nitrogen, and thawed immediately before use. Thawed cells were added to a 384-well plate at 7500 cells/well, and allowed to incubate overnight. Compound at various concentrations was added the following morning and allowed to incubate on cells for 1 h. Then, NGF was added at a concentration sufficient to elicit ˜80% of a maximal response and allowed to incubate for 3 h at ambient temperature. DiscoverX PathHunter detection reagent was then added and the plate was further incubated for 1 h in the dark. The plate was then read via luminescence on the Perkin Elmer Envision.

human TrkA receptor, sequence (P04629 33-796): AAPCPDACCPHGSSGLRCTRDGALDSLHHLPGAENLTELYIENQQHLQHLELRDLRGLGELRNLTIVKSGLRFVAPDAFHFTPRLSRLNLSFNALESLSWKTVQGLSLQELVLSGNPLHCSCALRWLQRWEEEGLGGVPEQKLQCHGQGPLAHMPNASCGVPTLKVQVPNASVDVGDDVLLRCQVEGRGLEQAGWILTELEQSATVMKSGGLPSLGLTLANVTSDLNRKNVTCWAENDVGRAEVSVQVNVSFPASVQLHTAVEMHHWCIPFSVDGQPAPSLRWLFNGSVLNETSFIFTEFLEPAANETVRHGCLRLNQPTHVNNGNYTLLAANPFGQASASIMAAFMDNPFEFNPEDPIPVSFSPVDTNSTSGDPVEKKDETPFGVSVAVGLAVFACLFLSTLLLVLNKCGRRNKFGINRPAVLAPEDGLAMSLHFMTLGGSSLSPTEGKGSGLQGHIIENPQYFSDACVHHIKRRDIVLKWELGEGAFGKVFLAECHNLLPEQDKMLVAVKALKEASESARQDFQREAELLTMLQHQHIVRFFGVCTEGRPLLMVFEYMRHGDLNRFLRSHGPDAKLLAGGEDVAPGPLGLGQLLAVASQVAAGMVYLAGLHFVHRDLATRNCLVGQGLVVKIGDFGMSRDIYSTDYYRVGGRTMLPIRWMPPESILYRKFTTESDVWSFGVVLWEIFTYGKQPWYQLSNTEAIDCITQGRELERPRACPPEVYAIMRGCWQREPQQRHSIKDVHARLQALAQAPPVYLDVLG

Row | SMILES | IC50
1 | Cn1ccc(-c2cc(C(=O)Nc3cc(S(C)(=O)=O)cnc3-c3ccccc3)c(F)cc2C(F)(F)F)n1 [Example 194, 2-Fluoro-5-(1-methyl-1H-pyrazol-3-yl)-N-(5-(methylsulfonyl)-2-phenylpyridin-3-yl)-4-(trifluoromethyl)benzamide] | 2.6 nM
2 | Cn1ccc(-c2cc(C(=O)Nc3cc(S(C)(=N)=O)cnc3-c3ccccc3)c(F)cc2C(F)(F)F)n1 (centres unmarked) [Example 195, 2-fluoro-5-(1-methyl-1H-pyrazol-3-yl)-N-(5-(S-methylsulfonimidoyl)-2-phenylpyridin-3-yl)-4-(trifluoromethyl)benzamide] | 2.8 nM
3 | Cn1ccc(-c2cc(C(=O)Nc3cnc(CS(C)(=O)=O)nc3-c3ccccc3)c(F)cc2C(F)(F)F)n1 [Example 199, 2-Fluoro-5-(1-methyl-1H-pyrazol-3-yl)-N-(2-((methylsulfonyl)methyl)-4-phenylpyrimidin-5-yl)-4-(trifluoromethyl)benzamide] | 4 nM
4 | CNS(=O)(=O)Cc1ccc(NC(=O)c2cc(-c3ccn(C)n3)c(C(F)(F)F)cc2F)c(-c2ccccc2)n1 [Example 200, 2-fluoro-5-(1-methyl-1H-pyrazol-3-yl)-N-(6-((N-methylsulfamoyl)methyl)-2-phenylpyridin-3-yl)-4-(trifluoromethyl)benzamide] | 4.4 nM
5 | Cn1ccc(-c2cc(C(=O)Nc3cnc(CC4CC(=O)NC4=O)nc3-c3ccccc3)c(F)cc2C(F)(F)F)n1 (centres unmarked) [Example 201, N-(2-((2,5-Dioxopyrrolidin-3-yl)methyl)-4-phenylpyrimidin-5-yl)-2-fluoro-5-(1-methyl-1H-pyrazol-3-yl)-4-(trifluoromethyl)benzamide] | 2.8 nM
6 | Cn1ccc(-c2cc(C(=O)Nc3cc(CC(N)=O)cnc3-c3ccccc3)c(F)cc2C(F)(F)F)n1 [Example 202, N-(5-(2-Amino-2-oxoethyl)-2-phenylpyridin-3-yl)-2-fluoro-5-(1-methyl-1H-pyrazol-3-yl)-4-(trifluoromethyl)benzamide] | 3.7 nM
7 | Cn1ccc(-c2cc(C(=O)Nc3cc(CC(N)=O)cnc3-c3ccccc3)ccc2C(F)(F)F)n1 [Example 203, N-(5-(2-amino-2-oxoethyl)-2-phenylpyridin-3-yl)-3-(1-methyl-1H-pyrazol-3-yl)-4-(trifluoromethyl)benzamide] | 6 nM
8 | O=C(Nc1cc(Cc2cnco2)cnc1-c1ccccc1)c1cc(-c2ncccn2)c(C(F)(F)F)cc1F [Example 204, 2-fluoro-N-(5-(oxazol-5-ylmethyl)-2-phenylpyridin-3-yl)-5-(pyrimidin-2-yl)-4-(trifluoromethyl)benzamide] | 8.3 nM
9 | Cn1ccc(-c2cc(C(=O)Nc3nc(CC(N)=O)ccc3-c3ccccc3)c(F)cc2C(F)(F)F)n1 [Example 205, N-(6-(2-Amino-2-oxoethyl)-3-phenylpyridin-2-yl)-2-fluoro-5-(1-methyl-1H-pyrazol-3-yl)-4-(trifluoromethyl)benzamide] | 8.4 nM
10 | Cn1ccc(-c2cc(C(=O)Nc3ccc(C4CN(C(=O)CO)C4)nc3-c3ccccc3)c(F)cc2C(F)(F)F)n1 [Example 206, 2-Fluoro-N-(6-(1-(2-hydroxyacetyl)azetidin-3-yl)-2-phenylpyridin-3-yl)-5-(1-methyl-1H-pyrazol-3-yl)-4-(trifluoromethyl)benzamide] | 1.3 nM
11 | Cn1ccc(-c2cc(C(=O)Nc3ccc(C4CN(C(=O)CN)C4)nc3-c3ccccc3)c(F)cc2C(F)(F)F)n1 [Example 207, 2-fluoro-N-(6-(1-glycylazetidin-3-yl)-2-phenylpyridin-3-yl)-5-(1-methyl-1H-pyrazol-3-yl)-4-(trifluoromethyl)benzamide] | 1.1 nM
12 | CC(=O)N1CC(c2ccc(NC(=O)c3cc(-c4ccn(C)n4)c(C(F)(F)F)cc3F)c(-c3ccccc3)n2)C1 [Example 208, N-(6-(1-acetylazetidin-3-yl)-2-phenylpyridin-3-yl)-2-fluoro-5-(1-methyl-1H-pyrazol-3-yl)-4-(trifluoromethyl)benzamide] | 3 nM
13 | Cn1ccc(-c2cc(C(=O)Nc3cnc(NC(=O)CO)nc3-c3ccccc3)c(F)cc2C(F)(F)F)n1 [Example 209, 2-Fluoro-N-(2-(2-hydroxyacetamido)-4-phenylpyrimidin-5-yl)-5-(1-methyl-1H-pyrazol-3-yl)-4-(trifluoromethyl)benzamide] | 2 nM
14 | Cn1ccc(-c2cc(C(=O)Nc3cnc(NCCO)nc3-c3ccccc3)ccc2C(F)(F)F)n1 [Example 210, N-(2-((2-hydroxyethyl)amino)-4-phenylpyrimidin-5-yl)-3-(1-methyl-1H-pyrazol-3-yl)-4-(trifluoromethyl)benzamide] | 2.5 nM
15 | Cn1ccc(-c2cc(C(=O)Nc3cnc(N4CCNC4=O)nc3-c3ccccc3)c(F)cc2C(F)(F)F)n1 [Example 211, 2-fluoro-5-(1-methyl-1H-pyrazol-3-yl)-N-(2-(2-oxoimidazolidin-1-yl)-4-phenylpyrimidin-5-yl)-4-(trifluoromethyl)benzamide] | 2.6 nM
16 | Cn1ccc(-c2cc(C(=O)Nc3cnc(N)nc3-c3ccccc3)c(F)cc2C(F)(F)F)n1 [Example 212, N-(2-amino-4-phenylpyrimidin-5-yl)-2-fluoro-5-(1-methyl-1H-pyrazol-3-yl)-4-(trifluoromethyl)benzamide] | 2.8 nM
17 | Cn1ccc(-c2cc(C(=O)Nc3cnc(NCC(N)=O)nc3-c3ccccc3)c(F)cc2C(F)(F)F)n1 [Example 213, N-(2-((2-amino-2-oxoethyl)amino)-4-phenylpyrimidin-5-yl)-2-fluoro-5-(1-methyl-1H-pyrazol-3-yl)-4-(trifluoromethyl)benzamide] | 1.4 nM
18 | Cn1ccc(-c2cc(C(=O)Nc3ncc(CN4CCOC4=O)nc3-c3ccccc3)c(F)cc2C(F)(F)F)n1 [Example 214, 2-Fluoro-5-(1-methyl-1H-pyrazol-3-yl)-N-(5-((2-oxooxazolidin-3-yl)methyl)-3-phenylpyrazin-2-yl)-4-(trifluoromethyl)benzamide] | 4.6 nM
19 | Cn1ccc(-c2cc(C(=O)Nc3ccc(C4CNC(=O)N4)nc3-c3ccccc3)c(F)cc2C(F)(F)F)n1 (centres unmarked) [Example 215, 2-Fluoro-5-(1-methyl-1H-pyrazol-3-yl)-N-(6-(2-oxoimidazolidin-4-yl)-2-phenylpyridin-3-yl)-4-(trifluoromethyl)benzamide] | 0.36 nM
20 | Cn1ccc(-c2cc(C(=O)Nc3cnc(OCC(N)=O)nc3-c3ccccc3)c(F)cc2C(F)(F)F)n1 [Example 216, N-(2-(2-Amino-2-oxoethoxy)-4-phenylpyrimidin-5-yl)-2-fluoro-5-(1-methyl-1H-pyrazol-3-yl)-4-(trifluoromethyl)benzamide] | 1.8 nM
21 | Cn1ccc(-c2cc(C(=O)Nc3cnc(CN4CCCC4=O)nc3-c3ccccc3)c(F)cc2C(F)(F)F)n1 [Example 219, 2-fluoro-5-(1-methyl-1H-pyrazol-3-yl)-N-(2-((2-oxopyrrolidin-1-yl)methyl)-4-phenylpyrimidin-5-yl)-4-(trifluoromethyl)benzamide] | 0.32 nM
22 | Cn1ccc(-c2cc(C(=O)Nc3cnc(CN4CCCCC4=O)nc3-c3ccccc3)c(F)cc2C(F)(F)F)n1 [Example 220, 2-fluoro-5-(1-methyl-1H-pyrazol-3-yl)-N-(2-((2-oxopiperidin-1-yl)methyl)-4-phenylpyrimidin-5-yl)-4-(trifluoromethyl)benzamide] | 1 nM
23 | Cn1ccc(-c2cc(C(=O)Nc3cnc(CN4CCCCCC4=O)nc3-c3ccccc3)c(F)cc2C(F)(F)F)n1 [Example 221, 2-fluoro-5-(1-methyl-1H-pyrazol-3-yl)-N-(2-((2-oxoazepan-1-yl)methyl)-4-phenylpyrimidin-5-yl)-4-(trifluoromethyl)benzamide] | 1.9 nM
24 | Cn1ccc(-c2cc(C(=O)Nc3cnc(CN4CCCOC4=O)nc3-c3ccccc3)c(F)cc2C(F)(F)F)n1 [Example 222, 2-fluoro-5-(1-methyl-1H-pyrazol-3-yl)-N-(2-((2-oxo-1,3-oxazinan-3-yl)methyl)-4-phenylpyrimidin-5-yl)-4-(trifluoromethyl)benzamide] | 0.22 nM
25 | Cn1ccc(-c2cc(C(=O)Nc3cnc(CN4CCOCC4=O)nc3-c3ccccc3)c(F)cc2C(F)(F)F)n1 [Example 223, 2-fluoro-5-(1-methyl-1H-pyrazol-3-yl)-N-(2-((3-oxomorpholino)methyl)-4-phenylpyrimidin-5-yl)-4-(trifluoromethyl)benzamide] | 1.6 nM
26 | Cn1ccc(-c2cc(C(=O)Nc3cnc(Cn4ccnc4)nc3-c3ccccc3)ccc2C(F)(F)F)n1 [Example 224, N-(2-((1H-imidazol-1-yl)methyl)-4-phenylpyrimidin-5-yl)-3-(1-methyl-1H-pyrazol-3-yl)-4-(trifluoromethyl)benzamide] | 1.6 nM
27 | Cn1ccc(-c2cc(C(=O)Nc3cnc(Cn4cccnc4=O)nc3-c3ccccc3)c(F)cc2C(F)(F)F)n1 [Example 225, 2-fluoro-5-(1-methyl-1H-pyrazol-3-yl)-N-(2-((2-oxopyrimidin-1(2H)-yl)methyl)-4-phenylpyrimidin-5-yl)-4-(trifluoromethyl)benzamide] | 1.2 nM
28 | Cn1ccc(-c2cc(C(=O)Nc3cnc(Cn4ccc(=O)[nH]c4=O)nc3-c3ccccc3)c(F)cc2C(F)(F)F)n1 [Example 226, N-(2-((2,4-dioxo-3,4-dihydropyrimidin-1(2H)-yl)methyl)-4-phenylpyrimidin-5-yl)-2-fluoro-5-(1-methyl-1H-pyrazol-3-yl)-4-(trifluoromethyl)benzamide] | 0.35 nM
29 | Cn1ccc(-c2cc(C(=O)Nc3cnc(Cn4cn[nH]c4=O)nc3-c3ccccc3)c(F)cc2C(F)(F)F)n1 [Example 227, 2-fluoro-5-(1-methyl-1H-pyrazol-3-yl)-N-(2-((5-oxo-1,5-dihydro-4H-1,2,4-triazol-4-yl)methyl)-4-phenylpyrimidin-5-yl)-4-(trifluoromethyl)benzamide] | 0.24 nM

Source: patent US9815846B2 (Merck Sharp & Dohme Corp., priority 2014, dated 2017)
